According to ChEMBL document CHEMBL3286265, “Three new anti-proliferative Annonaceous acetogenins with mono-tetrahydrofuran ring from graviola fruit (Annona muricata)” (Bioorg Med Chem Lett, 2014):
The source made the active and inactive calls. The calls are words filed in the database; no cut-off is given here.

System: PC-3
Assay: Antiproliferative activity against human PC3 cells at 20 ug/ml after 24 hrs by MTT assay
Assay type: functional, cell-based

| Structure (SMILES) | inhibition |
| --- | --- |
| CCCCCCCC[C@@H](O)[C@@H](O)CC[C@H](O)[C@H]1CC[C@H](CCCCCCCCCCC[C@H](O)CC2=C[C@H](C)OC2=O)O1 | Active |
| CCCCCCCCCCCC[C@H](O)[C@H]1CC[C@H]([C@H](O)CC(O)CCCCCCCC[C@H](O)CC2=C[C@H](C)OC2=O)O1 (stereo partly drawn) | Active |
| CCCCCCCC(O)CCCCCCC[C@@H](O)[C@H]1CC[C@H]([C@H](O)CCCCCCC[C@H](O)CC2=C[C@H](C)OC2=O)O1 (stereo partly drawn) | Active |
